SMILES strings stand for the structures. “Also recorded” adds a separate entry of the source.

Data set [1] relates to epithelial cells in the skin. Conditions: cited from earlier work.
The subject of data set [2] is S. aureus (including MRSA), group A, B, C and G streptococci, enterococci (including VRE) and Pseudomonas aeruginosa. Briefly: growth of wound infection bacteria in nutrient-rich medium with added xylitol. Type of data set: cell-based. Conditions: xylitol (1-10%) in nutrient-rich medium. As for the experimental part: (§1) The bacterial strains were stored at −70° C. Immediately prior to each experiment, these strains were taken out and placed on a blood plate and incubated overnight at 35° C. The same incubator was used in all the experiments. After that, a loop of the colonies which had grown was incubated in brain heart infusion (BHI) broth for 18 hours. 100 μl of this broth were inoculated into 3-5 ml of fresh BHI broth with or without the addition of xylitol. Different contents of xylitol were added. As is evident from FIGS. 1-5, the contents of xylitol were 1%, 2.5%, 5% and 10%.
(§2) The transmittance or translucency was measured from hour 0, and after that every hour, for 6 hours on a Biolog turbidimeter from the company Biolog Inc., Hayward, Calif., USA. The growth of bacteria reduces the translucency, i.e. the lower the transmittance the greater the growth of the bacteria.
(§3) At 0 hours and at 6 hours, 100 μl of the broth were cultured and the number of live bacteria was counted. The transmittance value and the quantity of bacteria (colony forming units/ml) in tubes with and without xylitol were then compared.

For data set [3] the following is noted: toxicity assessed as so low; cited from earlier work.
For the next data set, the system named is P. aeruginosa. Kind of data set: growth of P. aeruginosa in BHI broth with added xylitol. Type of data set: cell-based, Pseudomonas aeruginosa. Conditions: xylitol added to BHI, 1-10% (FIG. 5). As for the experimental part: as §1, §2, §3
For a further data set, the system named is group B streptococci. Kind of data set: growth of group B streptococci in BHI broth with added xylitol. Conditions: xylitol added to BHI, 1-10% (FIG. 3). Format: cell-based. As to the method: as §1, §2, §3
Data set [4] has as its system S. aureus (multiresistant), MRSA strain. Kind of data set: growth of multiresistant S. aureus (MRSA strain) in BHI broth with added xylitol (transmittance). Format: cell-based, Staphylococcus aureus. As to the method:
as §1, §2, §3

For the next data set, the system named is group G streptococci. Briefly: growth of group G streptococci in BHI broth with added xylitol. Format: cell-based. The settings on record: xylitol added to BHI, 1-10% (FIG. 4). As for the experimental part: as §1, §2, §3
A further data set relates to VRE. Kind of data set: growth of VRE with xylitol. Type of data set: cell-based, vancocin-resistant enterococci. As to the method:
as §1, §2, §3

Data set [5] has as its system intestinal bacteria which cause diarrhoea, bacteria which give rise to ear inflammations, yeast fungus. The settings on record: cited from earlier work.
The test system of a further data set is alpha-streptococci. The settings on record: oral flora; uptake via fructose phosphotransferase system; cited from earlier work.
For data set [6], the system named is beta-haemolytic streptococci, including group B streptococci. Kind of data set: growth of beta-haemolytic streptococci with xylitol. Type of data set: cell-based. As to the method:
as §1, §2, §3

For data set [7] the following is noted: children, clinical study; cited from earlier work.
Data set [8] has as its system S. aureus. Conditions: cited from earlier work.
Data set [9] relates to S. aureus. Kind of data set: growth of S. aureus in BHI broth with added xylitol (transmittance). Format: cell-based, Staphylococcus aureus. As to the method:
as §1, §2, §3

The subject of the next data set is bacteria. Conditions: bacteriological tests; cited from earlier work.

As to `OC[C@@H](O)[C@H](O)[C@@H](O)CO` [xylitol], the “absorption by epithelial cells in the skin” value in data set [1] was “only absorbed to a very slight extent”. Also, the “reduction of growth, factor” value in data set [2] was at most 1000. Further, in data set [3], the “limit value for an acceptable daily intake” value is recorded as “no limit value”. The “inhibition of growth of the bacteria” value with P. aeruginosa is recorded as “effective in combating the growth; also recorded: very effective in inhibiting the growth”; in the data set with group B streptococci, “effectively inhibited”; in [4] (xylitol added to nutrient solution, 1-10%), “effective in combating the growth; also recorded: inhibited very effectively”; with group G streptococci, “very effective in inhibiting the growth”; in the data set with VRE, “effective in combating the growth”. Moreover, in data set [4] (10% added xylitol, 6 hours, without xylitol approx. 30% (FIG. 2)), the “translucency after 6 hours” value was “more than 70%”. In [5], the adherence of bacteria result is reported as “decreases the adherence”. The growth of alpha-streptococci result with alpha-streptococci is reported as “inhibited”. Also, the “effect against the bacteria” value in data set [6] was “also effective”. For the same compound, the “reduction of the number of ear inflammations” value in data set [7] is reported as “up to 40%”. In the data set with S. aureus [8], the production of glycocalyx entry was “decrease”. For the same compound, the “bacterial growth after 2 hours” value in the data set on S. aureus [9] (BHI containing 10% added xylitol, 2 hours (FIG. 1)) was “hardly any bacterial growth at all”. Further, in the data set on S. aureus [9] (BHI nutrient solution, 10% xylitol added, 6 hours, without xylitol 20 (FIG. 1)), the “translucency (transmittance) after 6 hours” value is “more than 60%”. Moreover, in the data set with bacteria, the “mutagenic properties (increase in natural mutation frequency)” value is given as “No mutagenic properties”.

Values taken from patent US20070141129A1, “Wound care product comprising a substance which inhibits the growth of bacteria in wounds” (priority 2003, published 2007).
